Reference: paper PMC10686989, “Distinct activation mechanisms of β-arrestin-1 revealed by ^19F NMR spectroscopy” (Nature Communications, 2023)

Molecular target: T1, βarr1 (Homo sapiens, UniProt P49407, C125S/C140L/C150V/C242V/C251V/C269S/C59V/D390C)
T1 construct: we started from a full-length functional cysteine-less βarr1 construct[20]; 6xHis-tag with SSG linker and thrombin cleavage site (N, cleaved yes); made in house; host or cells: E. coli BL21(DE3)
Experiment: 1D 19F NMR of site-specifically 19F (wPSP-6F)-labeled βarr1
Format: biochemical
Conditions: for Linewidth: 298 K, pH 8.0
Source text: The cysteine-less mutant (C59V/C125S/C140L/C150V/C242V/C251V/C269S) of the long splice variant of human βarr1 was used for introduction of single site cysteine mutation for ^19F labeling. The sequence was codon-optimized for expression in Escherichia coli and cloned into a pET-28a(+) vector (Novagen), with an N-terminal 6xHis-tag, followed by an SSG linker and a thrombin cleavage site. All mutants, including the 1–382 (βarr1-ΔCT) and 1–395 truncation constructs, were generated using site-directed mutagenesis kits (Thermo Fisher). Primer sequences for generating the mutants are listed in Supplementary Table 4.
Each single-cysteine mutant of βarr1 was diluted to a concentration of 50 μM to be labeled using the sulfoxide-based ^19F probe wPSP-6F[21],[44]. The wPSP-6F stock dissolved in buffer E was added into the protein sample at 1.5-fold molar ratio excess and incubated at 4 °C for 1 h, followed by quenching with twofold molar ratio of dithiothreitol. The sample was then fully exchanged using buffer E to remove excess of small molecules, and subjected to a second round of SEC purification. The purified proteins were concentrated to 100 μM, flash-frozen in liquid nitrogen and stored at −80 °C until use. The purities of all samples were verified by SDS-PAGE.
The ^19F-labeled βarr1 was diluted to 50 μM using buffer E before incubation with peptides or PIP2. The V2Rpp, β2AR-GRK2pp/GRK6pp or PIP2 were added at 1.2-fold, 3-fold, and 1.5-fold molar ratio excess to the protein, respectively. For the membrane-bound sample, the reconstituted nanodiscs were added at twofold molar ratio of βarr1. All complexes were incubated at 25 °C for 1 h, and the freshly prepared samples were immediately subjected to ^19F NMR experiments.
NMR samples were prepared in buffer E to a final volume of 140 μL, supplemented with 1 mM DTT, 10% D2O for field lock, and 1 μM sodium trifluoroacetate (STFA) as the internal chemical shift reference. All samples were sterile-filtered and loaded into sterile 3 mm NMR microtubes to prevent microbial contamination. Final protein concentrations vary for different constructs, depending on their expression levels and stabilities, but all in the range of 20–50 μM.
All ^19F NMR spectra were recorded at 298 K using a Bruker AVANCE III HD 800 MHz spectrometer equipped with a ^1H-^19F/^13C/^15N TCI triple resonance cryogenic probe. All data were acquired and processed using the Bruker Topspin 4.2.0 software. For all 1D ^19F NMR experiments, the traditional one-pulse sequence was used. The carrier frequency was set to −68.0 ppm and the spectra were recorded with 4k points and a spectral width of 15,000 Hz. Because accurate calibration of the 90° excitation pulse length for individual samples is not practical due to the low protein concentrations, we used the 90° pulse length calibrated from a standard sample (0.05% Trifluoro-toluene in CDCl3) for all βarr1 samples. […] Therefore, all the ^19F experiments were conducted with a 100 ms relaxation delay, and acquired using 100,000–200,000 scans depending on the sample condition, yielding a signal-to-noise (S/N) ratio of approximately 50. SDS-PAGE were run for all samples before and after NMR experiments to ensure that no protein degradation occurs during the experiments.
All NMR data were analyzed using the MestraNova 12.0.0 software (https://mnova.pl). The spectra were baseline-corrected by the Whittaker Smoother method and applied with a 30 Hz exponential windows function. The ^19F chemical shifts were referenced to STFA at −75.450 ppm. All datasets were processed using the same variables to facilitate comparison. Spectral deconvolutions were performed assuming generalized Lorentzian line shapes. To distinguish overlapping resonances, a LB value of 3 Hz was initially applied to ensure the highest resolution and determine the exact chemical shift values. The spectra were subsequently fitted iteratively using an LB value of 30 Hz. […]

T1 sequence (P49407 whole entry C59V/C125S/C140L/C150V/C242V/C251V/C269S/D390C): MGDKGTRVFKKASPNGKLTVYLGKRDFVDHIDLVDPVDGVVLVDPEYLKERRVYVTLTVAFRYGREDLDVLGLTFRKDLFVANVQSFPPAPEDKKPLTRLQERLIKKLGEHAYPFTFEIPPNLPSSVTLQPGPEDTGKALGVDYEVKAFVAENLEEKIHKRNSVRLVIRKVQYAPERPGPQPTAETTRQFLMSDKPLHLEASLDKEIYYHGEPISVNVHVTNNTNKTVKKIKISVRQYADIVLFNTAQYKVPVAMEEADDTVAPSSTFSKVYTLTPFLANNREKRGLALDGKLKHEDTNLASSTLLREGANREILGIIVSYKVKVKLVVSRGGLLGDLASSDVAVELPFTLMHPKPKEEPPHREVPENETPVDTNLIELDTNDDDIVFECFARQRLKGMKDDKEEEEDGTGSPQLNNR

SMILES: CCCCCCCC(=O)OC[C@H](COP(=O)(O)O[C@@H]1[C@H](O)[C@H](O)[C@@H](OP(=O)(O)O)[C@H](OP(=O)(O)O)[C@H]1O)OC(=O)CCCCCCC [PIP2, diC8-PI(4,5)P2]
- Linewidth (1T36 site, ligand-bound state (V2Rpp 1.2-fold, PIP2 1.5-fold), basal 107): 102 Hz
- Linewidth increase upon PIP2 binding (C242 site): ~ 50%
- Linewidth (C242 site, PIP2 1.5-fold, basal 80): 120 Hz
- Linewidth (C269 site, PIP2 1.5-fold, basal 58): 56 Hz
- Linewidth increase upon PIP2 binding (D240C site): ~75%
- Linewidth (D240 site, PIP2 1.5-fold, basal 75): 133 Hz
- Linewidth of the S2 resonance (D390C site, released conformation, V2Rpp 1.2-fold or PIP2 1.5-fold): > 200 Hz
- CT displacement/release (D390C site, V2Rpp 1.2-fold, PIP2 1.5-fold): very slight increase of the active S2 peak at the D390C site
- Linewidth (D390 site, ligand-bound state (V2Rpp 1.2-fold, PIP2 1.5-fold), basal 87): 92 Hz
- Linewidth increase upon PIP2 binding (E206C site): < 10%
- Spectral change at E206C (E206C site, PIP2 alone): no obvious changes at this site
- Linewidth (E206 site, ligand-bound state (V2Rpp 1.2-fold, PIP2 1.5-fold), basal 120): 129 Hz
- Linewidth increase upon PIP2 binding (E283C site): < 10%
- Linewidth (E283 site, PIP2 1.5-fold, basal 99): 106 Hz
- Linewidth increase upon PIP2 binding (E313C site): ~ 50%
- Linewidth (E313 site, ligand-bound state (V2Rpp 1.2-fold, PIP2 1.5-fold), basal 88): 136 Hz
- Linewidth (E404 site, ligand-bound state (V2Rpp 1.2-fold, PIP2 1.5-fold), basal 51): 57 Hz
- Linewidth (F244 site, ligand-bound state (V2Rpp 1.2-fold, PIP2 1.5-fold), basal 123): 200 Hz
- Linewidth increase upon PIP2 binding (F277C site): < 10%
- Linewidth (F277 site, PIP2 1.5-fold, basal 68): 68 Hz
- Linewidth (H198 site, PIP2 1.5-fold, basal 107): 115 Hz
- S2 population (H295C site, PIP2 alone, 1.5-fold): ~ 68%
- S2 population (H295C site, PIP2 co-added with GRK2/6-phosphorylated β2AR peptides): ~ 55%
- Gate loop conformational change (S2 state) (H295C site, V2Rpp 1.2-fold, β2AR peptides 3-fold, PIP2 1.5-fold, nanodiscs twofold): dramatic, albeit incomplete transition to the S2 state
- Linewidth (H295 site, ligand-bound state (V2Rpp 1.2-fold, PIP2 1.5-fold), basal 230): 362 Hz
- Linewidth (L68 site, ligand-bound state (V2Rpp 1.2-fold, PIP2 1.5-fold), basal 89): 101 Hz
- Linewidth (L71 site, ligand-bound state (V2Rpp 1.2-fold, PIP2 1.5-fold), basal 62): 73 Hz
- Linewidth (L100 site, ligand-bound state (V2Rpp 1.2-fold, PIP2 1.5-fold), basal 247): 242 Hz
- Linewidth (L191 site, PIP2 1.5-fold, basal 58): 75 Hz
- Linewidth (L293 site, ligand-bound state (V2Rpp 1.2-fold, PIP2 1.5-fold), basal 113): 141 Hz
- Linewidth (L334 site, ligand-bound state (V2Rpp 1.2-fold, PIP2 1.5-fold), basal 50): 87 Hz
- Linewidth (N375 site, ligand-bound state (V2Rpp 1.2-fold, PIP2 1.5-fold), basal 46): 48 Hz
- Linewidth (T6 site, ligand-bound state (V2Rpp 1.2-fold, PIP2 1.5-fold), basal 71): 70 Hz
- Linewidth (T183 site, ligand-bound state (V2Rpp 1.2-fold, PIP2 1.5-fold), basal 67): 89 Hz
- New peak (Y63C site, PIP2 1.5-fold): appearance of a new peak S3
- Spectral changes in the central crest (Y63C, L68C, L71C, T136C, F244C, V2Rpp 1.2-fold, β2AR peptides 3-fold, PIP2 1.5-fold): apparently perturbs Y63C and F244C while having little effect on the other sites
- Linewidth (Y63 site, ligand-bound state (V2Rpp 1.2-fold, PIP2 1.5-fold), basal 118): 206 Hz
